Series [1] deals with MDA-MB-231/breast cancer cells. The series is described as follows: Morphological assessment. The series is classed as cell-based, human. Particulars: 0.1-100 µM, 48 h, phase-contrast microscope. The protocol: The impact of 8b on cancerous cellular morphology was evaluated over different concentrations following 48 h exposure time. In MDA-MB-231/breast cancer cells, normal membrane integrity and control group nucleus morphology was depicted for cells within vehicle negative control group (Figure 4A). […] At 100 µM concentration, the cell number became highly declined and great loss of cellular polyhedral shape was observed as cells acquired the tentacled spindle-shaped morphology (Figure 4E). These morphological changes were more drastic with 8b as compared to 5-FU for similar concentrations (100 µM) (Figure 4F).
The impact of this tested final compounds on the morphology of treated MDA-MB-231/breast cancer cell line was investigated, through planting cells within 6-well plates and subsequently incubated with 0.1, 1, 10, 100 µM of 8b […]. Variations within the cells’ morphology were identified via Olympus®-CKX53 Inverted Metallurgical light microscope (Olympus^TM, Center Valley, PA, USA), snapped by Olympus® Digital Camera, and analyzed by OLYMPUS® Stream image analysis software.

In a further series the test system is BAX gene. As to the kind of experiment: RT-PCR apoptotic gene expression. The class given is cell-based, human. The note with it: 13 μM, 48 h, MDA-MB-231, vs negative control. The method, then:
(§1) Dissection of the compound’s proapoptotic activity was proceeded through gene expression analysis for key genes, controlling apoptosis pathway, as well as protein level determination. Following 8b treatment for 48 h, alterations within MDA-MB-231/breast cancer cell expression of Bcl-2, Bax, caspase-3, -8, and -9 genes, as well as cytochrome c and class-III β-tubulin proteins levels were determined using real-time polymerase chain reaction (RT-PCR) or ELISA technique, respectively. Typically, Bcl-2, Bax, caspases, and cytochrome c proteins contributes within the regulation of apoptotic signaling. Acting as apoptotic activator (Bax) or inhibitor (Bcl-2), the Bcl-2 family proteins play their significant role in apoptosis. The caspases family are cysteine proteases being classified as either executioners; caspase-3, -6, or -7 or initiators; caspase-8 and -9 [36]. Regrading caspase-8, its activation is proceeded through extrinsic death-receptor dependent apoptotic pathway, while, caspase-9 activation is within the event of intrinsic mitochondrial cytochrome c leakage. Additionally, participation of activated caspase-3 is to be essential for […] activation. Class-III β-tubulin are pure prognostic biomarker within cancer patients being associated with aggressive phenotypic/drug-resistant cancers and part of complicated pro-survival molecular pathway, being triggered via poor nutrient supply and hypoxia.
(§2) Quantitative Real-time PCR was operated on Rotor-Gene Q® PCR system as a reader (Cat.#: 204774; Qiagen^TM, Milan, Italy) via GenElute® RNA extraction/SIGMA PCR kit (Cat.#: REI10; Qiagen^TM, Milan, Italy)^86. Cells were treated with IC50 of 8b for 48 h and total RNA was extracted from the non-treated and treated cells. RNA purity was assessed via Nanodrop® 2000/2000c UV-Vis spectrophotometer (Thermo-Scientific^TM, Bilbao, Spain). Synthesis of cDNA was proceeded using QuantiNova® Reverse Transcription Kit (Cat.#: RTN30; Qiagen^TM, Milan, Italy) and the subsequent PCR tests were conducted via single tubes. Specific forward/reverse primer pairs were selected for investigated (Casp-3, -8, -9, BAX, and Bcl2). Obtained results were expressed within Cycle threshold (Ct) values, while relative quantitation of each measured gene was assessed based on ΔΔCt calculations as represented in Table 5 [79].

The test system of a further series is Caspase-3 gene. The series is described as follows: RT-PCR apoptotic gene expression. The class given is cell-based, human. Particulars: 13 μM, 48 h, MDA-MB-231, vs negative control. The protocol:
as §1, §2

Another series deals with Caspase-9 gene. As to the kind of experiment: RT-PCR apoptotic gene expression. Particulars: 13 μM, 48 h, MDA-MB-231, vs negative control. The series is classed as cell-based, human. The protocol: as §1, §2
Another series deals with Bcl-2 gene. The series is described as follows: RT-PCR apoptotic gene expression. The class given is cell-based, human. Particulars: 13 μM, 48 h, MDA-MB-231, vs negative control. The method, then:
as §1, §2

The test system of the next series is Caspase-8 gene. The series is described as follows: RT-PCR apoptotic gene expression. The series is classed as cell-based, human. Particulars: 13 μM, 48 h, MDA-MB-231, vs negative control. The protocol:
as §1, §2

Series [2] in a line: In-vitro drug release, dialysis method. The note with it: over 48 h, PBS pH 7.4, 37 °C, dialysis bag. The series is classed as physicochemical. The protocol:
The in-vitro drug-release behavior of SLNs was determined through the dialysis method. The release of drug from SLNs was done using phosphate buffer saline (pH 7.4) as dissolution medium. An accurate amount of SLNs (equivalent to 5 mg drug) was taken and placed within the dialysis bag (MWCO: 12 kDa). The dialysis bag was closed from both ends and placed within 75 mL Phosphate Buffer Saline (pH 7.4) as dissolution medium. The analysis was conducted while maintaining the dissolution medium at 37 ± 1 °C and being stirred via magnetic stirrer at 100 rpm. Dissolution medium samples (2 mL) were withdrawn at pre-determined time intervals (0.5, 1, 2, 4, 8, 12, 24 and 48 h). Equal volumes of fresh dissolution medium were added to replace the withdrawn volumes for keeping sink condition. The experiment was done in triplicate and the amount of drug release was measured following the same procedure as in the entrapment efficiency section.

The record followed here is article PMC7912796, “Design, Synthesis, Anticancer Activity, and Solid Lipid Nanoparticle Formulation of Indole- and Benzimidazole-Based Compounds as Pro-Apoptotic Agents Targeting Bcl-2 Protein” (Pharmaceuticals, 2021).

Consider `CCCc1ccc(-c2nn(-c3ccccc3)cc2C=NNC(=O)c2cc3ccccc3[nH]2)cc1` [Compound 8b, N′-((1-phenyl-3-(4-propylphenyl)-1H-pyrazol-4-yl)methylene)-1H-indole-2-carbohydrazide], for which the cell morphology alterations result in series [1] is “significant cell morphology alteration, intercellular space dilatation, and cellular shrinkage”. This molecule also returned a BAX gene expression in the series with BAX gene of 3.61 folds. In the series with Caspase-3 gene, this molecule had a Caspase-3 gene expression of 4.28 folds. Besides, the Caspase-9 gene expression in the series with Caspase-9 gene is reported as 7.65 folds. In the series with Bcl-2 gene, the Bcl-2 gene expression worked out at 0.165 folds. Further, the Caspase-8 gene expression in the series on Caspase-8 gene is 1.53 folds. For the same molecule, the “total released amount of drug” value in series [2] worked out at 21.48 ± 1.17%.
